Results: patent US8557845B2, “Substituted pyrrolo-pyrazole derivatives as kinase inhibitors” (Nerviano Medical Sciences S.R.L., priority 2002, dated 2013)

biological target: Cdk2/Cyclin A (Homo sapiens, UniProt P24941); experiment: Inhibition assay of Cdk2/Cyclin A activity (SPA, IC50); type: biochemical; conditions: tested against Cdk2/Cyclin A
Description: The inhibiting activity of putative Cdk/Cyclin inhibitors and the potency of selected compounds was determined through a method of assay based on the use of the SPA technology (Amersham Pharmacia Biotech).
The assay consists of the transfer of radioactivity labelled phosphate moiety by the kinase to a biotinylated substrate. The resulting 33P-labelled biotinylated product is allowed to bind to streptavidin-coated SPA beads (biotin capacity 130 pmol/mg), and light emitted was measured in a scintillation counter.
Inhibition Assay of Cdk2/Cyclin A Activity
4 μM in house biotinylated histone H1 (Sigma #H-5505) substrate, 10 μM ATP (0.1 microCi P^33γ-ATP), 4.2 ng Cdk2/Cyclin A complex, inhibitor in a final volume of 30 μl buffer (TRIS HCl 10 mM pH 7.5, MgCl2 10 mM, DTT 7.5 mM+0.2 mg/ml BSA) were added to each well of a 96 U bottom. After 30 min at r.t. incubation, reaction was stopped by 100 μl PBS+32 mM EDTA+0.1% Triton X-100+500 μM ATP, containing 1 mg SPA beads. Then a volume of 110 μl is transferred to Optiplate.
After 20 min. incubation for substrate capture, 100 μl 5M CsCl were added to allow statification of beads to the top of the plate and let stand 4 hours before radioactivity counting in the Top-Count instrument.
inhibitors were tested at different concentrations ranging from 0.0015 to 10 μM. Experimental data were analyzed by the computer program GraphPad Prizm using the four parameter logistic equation: y=bottom+(top−bottom)/(1+10^((log IC50−x)*slope)) where x is the logarithm of the inhibitor concentration, y is the response; y starts at bottom and goes to top with a sigmoid shape.

SMILES | IC50
CC(C)(C)C(=O)N1Cc2c(NC(=O)c3ccc(F)cc3)n[nH]c2C1(C)C [Compound 1, N-[5-(2,2-dimethylpropanoyl)-6,6-dimethyl-1,4,5,6-tetrahydropyrrolo[3,4-c]pyrazol-3-yl]-4-fluorobenzamide] | 30 nM
CC(C)(C)C(=O)N1Cc2c(NC(=O)c3ccc(F)cc3)n[nH]c2C12CC2 [Compound 2, N-[5-(2,2-dimethylpropanoyl)-1,4,5,6-tetrahydropyrrolo[3,4-c]pyrazol-6-spirocyclopropan-3-yl]-4-fluorobenzamide] | 25 nM
CC(=O)N1Cc2c(NC(=O)c3cccc(Br)c3)n[nH]c2C1(C)C [Reference Compound, N-[5-acetyl-6,6-dimethyl-4,6-dihydropyrrolo[3,4-c]pyrazol-3-yl]-(3-bromo)benzamide, reference compound] | 1700 nM
